These are literature values, as cited in patent US8563051B2, “Herbal composition for weight management” (InQpharm Sdn Bhd, priority 2005, dated 2013).

Read-outs that look alike come from different tables or passages of the source.

The conditions of data set [1]: doses in the range of 1 to 5 grams a day.
The conditions of data set [2]: human clinical weight loss trial.
For data set [3] the following is noted: human clinical trial; blood levels not measured.
The conditions of data set [4]: rodents.
The conditions of data set [5]: 8-week human clinical study, 26 subjects.
Data set [6] has as its system Ehrlich ascites tumor cell. The settings on record: in vitro.

With `O=C(O)CC(O)(C(=O)O)C(O)C(=O)O` (single isomer, unassigned; (-)) [HCA, (−)hydroxycitric acid], the safety assessment result in data set [1] is “no relevant safety issues”.

As for `O=C([O-])CC(O)(C(=O)[O-])C(O)C(=O)[O-].[Ca+2].[K+]` (stereo not drawn) [calcium and potassium hydroxycitrate], in data set [2], the weight loss entry is “shown to be effective”.

Turning to `O=C([O-])C[C@@](O)(C(=O)[O-])[C@H](O)C(=O)[O-].O=C([O-])C[C@@](O)(C(=O)[O-])[C@H](O)C(=O)[O-].[Ca+2].[Ca+2].[Ca+2]` [calcium salt of hydroxycitric acid], the weight loss entry in data set [3] is listed as “ineffective for weight loss”.

As for sodium salt of hydroxycitric acid, in data set [4], the “food intake and weight” value is “reduce food intake and cause weight loss”.

As for `C[C@H]1[C@H](C)CC[C@]2(C(=O)O)CC[C@]3(C)C(=CC[C@@H]4[C@@]5(C)C[C@@H](O)[C@H](O)C(C)(C)[C@@H]5CC[C@]43C)[C@H]12` [Corosolic acid, 2-hydroxyursolic acid], in data set [5], the “glucose tolerance and blood sugar levels” value is “improved glucose tolerance and improved blood sugar levels”. Besides, in data set [6], the glucose transport activity result is recorded as “stimulate significant glucose transport activity”.
